Measured values taken from patent US8986696B2, “Trans-capsular administration of p38 map kinase inhibitors into orthopedic joints” (DePuy Mitek, Inc., priority 2007, dated 2015).

Legend:
[1] = system: rabbit anterior cruciate ligament transection (ACLT) model of osteoarthritis; test: ACLT model, SCIO-469 (Example VIII); assay type: in vivo
Protocol: The formulation of the highest concentration was diluted into the lower concentrations using ORTHOVISC®. Once prepared, the formulations were stored at 4° C. The study design consisted of an n=12 per group. The SCIO-469 (SD 469) was suspended in ORTHOVISC®. A total of 160 μl was injected at each administration. The intra-articular injections were performed according to the ACLT model. However, control groups either received no injections or received the ORTHOVISC® vehicle delivered once weekly for three weeks. Euthanasia was performed according to the ACLT model. However, the animals were euthanized nine weeks post ACLT with an intravenous injection of pentobarbital (60 mg/kg). […] At the time of sacrifice the following parameters were evaluated grossly (the scale follows in parenthesis): Each parameter was given a score. The combination of all parameters gave a Total Score (0-52). […] Lastly, an All Cartilage Effects Score was obtained. The score for All Cartilage Effects ranges from 0 to 40. The grades that compose this parameter are trochlear groove thickness and erosion, all the grades in All Condylar Effects, and all grades listed under tibial plateau. A higher score indicates more damage to the joint. A lower score indicates less damage or more cartilage preservation to the joint. Individual results for each parameter assessed were tabulated (data not shown).

[2] = drug content in the joints (Example VIII); assay type: in vivo, rabbit; conditions: at the time of analysis
From the text: For each treatment group, four animals were included to provide pharmacokinetic data (available drug levels in blood and tissue). Prior to treatment administration, blood samples were collected and frozen for analysis. After gross observation, the joints were removed and frozen for analysis.

chondrocytes = assay type: cell-based; conditions: bovine, 100000 nM
From the text: (§1) Calf articular cartilage was obtained from the knee joints of eight to twelve month old animals and was processed within twenty-four hours after sacrifice. After removal of muscle and ligament, the cartilage was kept moist using phosphate buffer solution (PBS) to prevent tissue dehydration, and was aseptically peeled off from subchondral bone with a scalpel, and the cartilage pieces were further minced into smaller pieces (˜0.3-0.5×˜0.2-0.5 cm cubes). […] Chondrocytes were then enzymatically isolated from the tissue by incubation for overnight at 37° C. with gentle agitation in 0.2% collagenase in Dulbecco's modified eagle media (DMEM). After removal of tissue debris by filtration through cell strainer and the residual collagenase by 3× wash in PBS, cells were finally resuspended at a density of 2.5×10^6 cells/ml in chondrocyte medium. A 1 ml aliquot of the cell suspension was dispensed into either a 15 ml Falcon centrifuge tube or a 96 deep-well plate and centrifuged at 2000×g for five minutes. The chondrocyte pellets were incubated at 37° C. in a humidified atmosphere of 5% CO2 for two to three weeks with a medium change every other day.
(§2) As an alternative to using calf articular cartilage, a commercial Alginate Recovered Chondrocytes (ARC) system was also used (Articular Engineering, LLC (Northbrook, Ill.)). Use of the commercial system cut down on labor and time in producing chondrocyte pellet. This system produced cartilaginous tissue in vitro using bovine chondrocytes. The first step consisted of culturing chondrocytes in alginate under conditions optimal for the formation of a cell-associated matrix (CM). The second step allowed these cells with their CM, after recovery, to rapidly form and become integrated into a solid mass of cartilage on a porous insert within two weeks. This tissue is rich in cells surrounded by a cell-associated matrix that is degraded rapidly when the cells are exposed to IL-1. ARC tissues in 3 mm punches at delivery were first dispensed into a 96 deep-well plate, one punch per well, for compound treatment. The subsequent procedures were the same as those used for the chondrocyte pellets.
(§3) Chondrocyte pellets were washed once with 1 ml of Chondrocyte Stimulation Medium and equilibrated in the same medium at room temperature for fifteen to thirty minutes. Compounds were dissolved in H2O, Ethanol or dimethyl sulfoxide (DMSO) (10^−2 M) according to suppliers' instructions and further diluted with Chondrocyte Stimulation Medium to the required concentrations. DMSO concentrations in the culture media should not exceed 1%; this concentration of DMSO has no effect on cartilage proteoglycan metabolism in response to cytokines.
The pellets were first treated with compounds at desired concentrations at 37° C. for one hour and then incubated for three to five days in the absence or presence of 10 ng/ml of IL-1β. At the end of the incubation, media and pellets were harvested and frozen for further analysis. Pellets were also fixed as needed in 4% (w/v) paraformaldehyde in PBS for histology analysis.
The LDH activity was determined colorimetrically in an enzymatic test based on the conversion of lactic acid to pyruvate in the presence of chromagenic substrate tetrazolium salt INT that was reduced to formazan.

[3] = system: IL-1β-stimulated GAG release, bovine chondrocyte pellets / ARC tissues; test: chondrocyte pellet culture model: GAG degradation; assay type: cell-based
From the text: as §1, §2, §3
[…] At the end of the incubation, media and pellets were harvested and frozen for further analysis. Pellets were also fixed as needed in 4% (w/v) paraformaldehyde in PBS for histology analysis.
Glycosaminoglycan (GAG) levels in the culture media were determined by measuring the amount of polyanionic material reacting with 1,9-dimethylmethylene blue (DME) as detected by absorbance at 525 nm, using shark chondroitin sulfate as a standard. The DME blue dye-binding solution was prepared by dissolving 16 mg of DME blue in a solution containing 0.304% glycine, 0.23% sodium chloride (NaCl), 9.5 mM hydrochloric acid (HCl), pH=3.0 with absorbance at 525 equal to 0.31. Proteoglycans and proteoglycan metabolites in chondrocyte pellet were released by digesting the pellet with 125 μg/ml of papain in 0.1 M PBS, pH 6.0, 5 mM cysteine, 5 mM ethylene-diamine-tetra-acetic acid disodium salt (Na2EDTA) at 50° C. for overnight. Results are reported as either micrograms of GAG per milliliter or percent of total GAG released into culture medium.

## C[C@@H]1CN(Cc2ccc(F)cc2)[C@@H](C)CN1C(=O)c1cc2c(C(=O)C(=O)N(C)C)cn(C)c2cc1Cl [SCIO-469 (SD 469)]
[1]; 0.5 μg/kg
  All Cartilage Effects (0-40), mean: 12.75
  All Condylar Effects (0-18), mean: 6.45
  All Tibial Plateau Effects (0-24), mean: 7.20
  All Trochlear Groove Effects (0-10), mean: 8.40
  Femoral Condyle % Surface Area Erosion (Lateral), mean score: 2.80
  Femoral Condyle % Surface Area Erosion (Medial), mean score: 0.90
  Femoral Condyle Depth of Erosion (Lateral), mean score: 2.00
  Femoral Condyle Depth of Erosion (Medial), mean score: 0.55
  Femoral Condyle Presence of Clefts, mean score: 0.20
  Tibial Plateau # of Osteophytes (Lateral), mean score: 1.50
  Tibial Plateau # of Osteophytes (Medial), mean score: 1.80
  Tibial Plateau % Surface Area Erosion (Lateral), mean score: 2.00
  Tibial Plateau % Surface Area Erosion (Medial), mean score: 0
  Tibial Plateau Depth of Erosion (Lateral), mean score: 1.90
  Tibial Plateau Depth of Erosion (Medial), mean score: 0
  Tibial Plateau Presence of Clefts (Lateral), mean score: 0
  Tibial Plateau Presence of Clefts (Medial), mean score: 0
  Total Score (0-52), mean: 22.05
  Trochlear Groove # of Osteophytes, mean score: 3.00
  Trochlear Groove Erosion of Cartilage, mean score: 2.40
  Trochlear Groove Osteophyte Size, mean score: 3.00
  Trochlear Groove Thickening, mean score: 0
[1]; 5 μg/kg
  All Cartilage Effects (0-40), mean: 13.17
  All Condylar Effects (0-18), mean: 6.50
  All Tibial Plateau Effects (0-24), mean: 7.08
  All Trochlear Groove Effects (0-10), mean: 8.08
  Femoral Condyle % Surface Area Erosion (Lateral), mean score: 1.67
  Femoral Condyle % Surface Area Erosion (Medial), mean score: 1.67
  Femoral Condyle Depth of Erosion (Lateral), mean score: 1.96
  Femoral Condyle Depth of Erosion (Medial), mean score: 1.21
  Femoral Condyle Presence of Clefts, mean score: 0
  Tibial Plateau # of Osteophytes (Lateral), mean score: 1.08
  Tibial Plateau # of Osteophytes (Medial), mean score: 1.67
  Tibial Plateau % Surface Area Erosion (Lateral), mean score: 1.50
  Tibial Plateau % Surface Area Erosion (Medial), mean score: 0.58
  Tibial Plateau Depth of Erosion (Lateral), mean score: 1.63
  Tibial Plateau Depth of Erosion (Medial), mean score: 0.63
  Tibial Plateau Presence of Clefts (Lateral), mean score: 0
  Tibial Plateau Presence of Clefts (Medial), mean score: 0
  Total Score (0-52), mean: 21.67
  Trochlear Groove # of Osteophytes, mean score: 2.83
  Trochlear Groove Erosion of Cartilage, mean score: 2.17
  Trochlear Groove Osteophyte Size, mean score: 2.92
  Trochlear Groove Thickening, mean score: 0.17
[1]; 50 μg/kg
  All Cartilage Effects (0-40), mean: 8.32
  All Condylar Effects (0-18), mean: 4.18
  All Tibial Plateau Effects (0-24), mean: 5.41
  All Trochlear Groove Effects (0-10), mean: 6.91
  Femoral Condyle % Surface Area Erosion (Lateral), mean score: 1.18
  Femoral Condyle % Surface Area Erosion (Medial), mean score: 1.27
  Femoral Condyle Depth of Erosion (Lateral), mean score: 1.05
  Femoral Condyle Depth of Erosion (Medial), mean score: 0.68
  Femoral Condyle Presence of Clefts, mean score: 0
  Tibial Plateau # of Osteophytes (Lateral), mean score: 0.91
  Tibial Plateau # of Osteophytes (Medial), mean score: 1.73
  Tibial Plateau % Surface Area Erosion (Lateral), mean score: 1.09
  Tibial Plateau % Surface Area Erosion (Medial), mean score: 0.36
  Tibial Plateau Depth of Erosion (Lateral), mean score: 1.14
  Tibial Plateau Depth of Erosion (Medial), mean score: 0.18
  Tibial Plateau Presence of Clefts (Lateral), mean score: 0
  Tibial Plateau Presence of Clefts (Medial), mean score: 0
  Total Score (0-52), mean: 16.50
  Trochlear Groove # of Osteophytes, mean score: 2.64
  Trochlear Groove Erosion of Cartilage, mean score: 1.36
  Trochlear Groove Osteophyte Size, mean score: 2.91
  Trochlear Groove Thickening, mean score: 0
[1]; 0.5, 5 or 50 μg/kg, direct injection into a diseased joint
  utility in ACLT model, gross observations: did not demonstrate the utility
[2]
  drug content in the joints: no drug could be detected
chondrocytes
  increase of LDH level: 121%
[3]; ARC tissues stimulated with IL-1β
  inhibition of GAG degradation: no effect
[3]; Pellet Assay
  GAG Release: No effect
